According to paper PMC10763754 (Science Advances, 2021):
Entries after “also recorded” stand apart in the source; their conditions may differ.

Target: CDC34A-ubiquitin complex (Homo sapiens, UniProt P0CG48+P49427)
Sequence (P49427 whole entry, other chains not shown): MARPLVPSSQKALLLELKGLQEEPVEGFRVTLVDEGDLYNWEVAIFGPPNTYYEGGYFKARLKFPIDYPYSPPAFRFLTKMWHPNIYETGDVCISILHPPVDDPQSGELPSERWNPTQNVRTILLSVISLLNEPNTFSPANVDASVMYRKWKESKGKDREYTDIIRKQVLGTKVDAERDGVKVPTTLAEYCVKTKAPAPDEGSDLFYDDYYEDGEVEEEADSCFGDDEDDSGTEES
Assay: biochemical
Assay type: binding
Conditions: not given
For COCC(=O)N1CCC(Cc2ccc(-c3cc(Cl)cc(Cl)c3)cc2)(C(=O)NC(C)C)CC1 [2aa], the “fold improvement in TR-FRET potency compared to hit 1” value was 27 fold. In the case of CCNC(=O)C1(Cc2ccc(-c3cc(Cl)cc(Cl)c3)cc2)CCN(C(=O)COC)CC1 [2ab], the “fold improvement in TR-FRET potency compared to hit 1” value is reported as > 80 fold. For COCC(=O)N1CCC(Cc2ccc(-c3cc(Cl)cc(Cl)c3)cc2)(C(N)=O)CC1 [2ac], the “activity in the TR-FRET assay (in words)” value was “lacked activity”. With COCC(=O)N1CCC(Cc2ccc(-c3cc(Cl)cc(Cl)c3)cc2)(C(=O)NCCO)CC1 [2ai] the “activity in the TR-FRET assay (in words)” value was “abrogated activity; also recorded: complete loss of activity”. With COCC(=O)N1CCC(Cc2ccc(-c3cc(Cl)cc(Cl)c3)cc2)(C(=O)NC[C@@H](C)O)CC1 [2at] the “activity in the TR-FRET assay (in words)” value was “abrogated activity; also recorded: complete loss of activity”. For COCC(=O)N1CCC(Cc2ccc(-c3cc(Cl)cc(Cl)c3)cc2)(C(=O)NC[C@@H](O)CO)CC1 [2au], the “activity in the TR-FRET assay (in words)” value was “abrogated activity; also recorded: complete loss of activity”. With CCNC(=O)C1(Cc2ccc(-c3cc(Cl)cc(Cl)c3)cc2)CCN(C(=O)OCC(C)C)CC1 [2db] the “fold increase in TR-FRET potency relative to parent 2ab” value was 10 fold. For COCC(=O)N1CCC(Cc2ccc(-c3cc(Cl)cc(Cl)c3)cc2)(NC(C)=O)CC1 [3a], the “activity in the TR-FRET assay (in words)” value was “abolished TR-FRET activity”. For CCC(=O)NC1(Cc2ccc(-c3cc(Cl)cc(Cl)c3)cc2)CCN(C(=O)COC)CC1 [3b], the “activity in the TR-FRET assay (in words)” value was “abolished TR-FRET activity”. With COCC(=O)N1CCC(Cc2ccc(-c3cc(Cl)cc(Cl)c3)cc2)(c2nnc(C)o2)CC1 [4a] the “activity in the TR-FRET assay (in words)” value was “abolished activity”. With Cc1nnc(C2(Cc3ccc(-c4cc(Cl)cc(Cl)c4)cc3)CCN(C(=O)COc3ccccc3)CC2)o1 [4b] the “activity in the TR-FRET assay (in words)” value was “abolished activity”. For COCC(=O)N1CCC(Cc2ccc(-c3cccc(C)c3)cc2)(C(=O)NC(C)C)CC1 [compound 1], the EC50 was 327 µM and the “fold worse than CC0651 in the TR-FRET screen assay” value was 10 fold. In the case of COCC(=O)N1CCC(O)(c2ccc(-c3cc(Cl)cc(Cl)c3)cc2)CC1 [compound 6], the “activity in the TR-FRET assay (in words)” value is reported as “completely inactive”. With CCCCCN1CCC(Cc2ccc(-c3cc(Cl)cc(Cl)c3)cc2)(C(=O)OCC)CC1 [compound 7] the “activity in the TR-FRET assay (in words)” value was “complete abrogation of activity”. For COCC(=O)N1CCC(Cc2ccc(-c3cc(Cl)cc(Cl)c3)cc2)(C(=O)O)CC1 [compound 12], the “activity in the TR-FRET assay (in words)” value was “lacked activity”.

Same assay, conditions: TR-FRET EC50
COCC(=O)N1CCC(Cc2ccc(-c3cc(Cl)cc(Cl)c3)cc2)(C(=O)NC(C)C)CC1 [2aa] showed an EC50 of 12 µM. In the case of CCNC(=O)C1(Cc2ccc(-c3cc(Cl)cc(Cl)c3)cc2)CCN(C(=O)COC)CC1 [2ab], the EC50 is reported as 4 µM. For CNC(=O)C1(Cc2ccc(-c3cc(Cl)cc(Cl)c3)cc2)CCN(C(=O)COC)CC1 [2ad], the EC50 was 20 µM. For CCCNC(=O)C1(Cc2ccc(-c3cc(Cl)cc(Cl)c3)cc2)CCN(C(=O)COC)CC1 [2ae], the EC50 was 4 µM. Work on COCC(=O)N1CCC(Cc2ccc(-c3cc(Cl)cc(Cl)c3)cc2)(C(=O)NCC2CC2)CC1 [2ah] yielded an EC50 of 7 µM. Molecule CCCCCNC(=O)C1(Cc2ccc(-c3cc(Cl)cc(Cl)c3)cc2)CCN(C(=O)COC)CC1 [2ak] has an EC50 of 26 µM. Molecule COCC(=O)N1CCC(Cc2ccc(-c3cc(Cl)cc(Cl)c3)cc2)(C(=O)NC2CC2)CC1 [2al] has an EC50 of 5 µM. Molecule COCC(=O)N1CCC(Cc2ccc(-c3cc(Cl)cc(Cl)c3)cc2)(C(=O)NC(C)(C)C)CC1 [2as] has an EC50 of 15 µM. Molecule COCC(=O)N1CCC(Cc2ccc(-c3cc(Cl)cc(Cl)c3)cc2)(C(=O)N2CCCC2)CC1 [2aα] has an EC50 of 3 µM. COCC(=O)N1CCC(Cc2ccc(-c3cc(Cl)cc(Cl)c3)cc2)(C(=O)N2CCOCC2)CC1 [2aζ] gave an EC50 of 3 µM. In the case of COCC(=O)N1CCC(Cc2ccc(-c3cc(Cl)cc(Cl)c3)cc2)(C(=O)N2CCCCC2)CC1 [2aη], the EC50 is reported as 1 µM. Molecule CCNC(=O)C1(Cc2ccc(-c3cc(Cl)cc(Cl)c3)cc2)CCN(C(=O)CCOC)CC1 [2cb] has an EC50 of 2 µM. With CCNC(=O)C1(Cc2ccc(-c3cc(Cl)cc(Cl)c3)cc2)CCN(C(=O)OCC(C)C)CC1 [2db] the EC50 was 0.4 µM. CCNC(=O)C1(Cc2ccc(-c3cc(Cl)cc(Cl)c3)cc2)CCN(C(=O)[C@H]2CCCO2)CC1 [2eb] gave an EC50 of 17 to 23 µM. With CCNC(=O)C1(Cc2ccc(-c3cc(Cl)cc(Cl)c3)cc2)CCN(C(=O)[C@@H]2CCCO2)CC1 [2fb] the EC50 was 17 to 23 µM. With CCNC(=O)C1(Cc2ccc(-c3cc(Cl)cc(Cl)c3)cc2)CCN(C(=O)c2ccccc2)CC1 [2gb] the EC50 was 2 µM.

Target: CDC34A (Homo sapiens, UniProt P0CG48+P49427)
Sequence (P49427 whole entry, other chains not shown): as above
Assay: not given
Conditions: cited from earlier work
For COCC(=O)N[C@@H](Cc1ccc(-c2cc(Cl)cc(Cl)c2)cc1)[C@H](O)[C@@H](O)C(=O)O [CC0651], the “potency of CC0651 in vitro” value is listed as ~ 5 μM.
